Test results from US12590118B2, “Salt and crystal form of steroid derivative regulator” (Shanghai Hansoh Biomedical Co., Ltd., priority 2019, dated 2026).

Experiments:
GABA-A receptor = assay: 35S-TBPS binding assay (GABAA receptor binding ability assay); parameters: species or system Sprague-Dawley rat; conditions: rat cerebral cortex cell membrane, 5 μM GABA, 2 nM 35S-TBPS; read-out: IC50 on inhibiting the TBPS binding activity, 35S-TBPS bindng assay
Experimental: 1. The cerebral cortex of male Sprague-Dawley rat was isolated.
2. A pre-chilled 0.32 M sucrose solution (one tablet of protease inhibitor was added per 100 mL) was added to the cerebral cortex (the volume of sucrose solution was 10 times the volume of the cerebral cortex). The mixture was crushed with a 50 mL glass tissue homogenizer in batches and mixed well.
3. The mixture was centrifuged at 1,500 g, 4° C. for 10 minutes, and the supernatant was collected.
4. The mixture was centrifuged at 20,000 g, 4° C. for 30 minutes, and the supernatant was discarded.
5. The precipitate was resuspended with the pre-chilled phosphate buffer saline (PBS) (one tablet of protease inhibitor was added per 100 mL). An average of 4 mL of PBS was added per rat, and the mixture was mixed well with a glass tissue homogenizer.
6. The mixture was centrifuged at 10,000 g, 4° C. for 10 minutes, and the supernatant was discarded.
7. Steps 5 and 6 were repeated three times.
8. Finally, the precipitate was resuspended with 4 volumes of PBS. The resulting solution was dispensed, frozen in liquid nitrogen, and stored at −80° C.
9. The protein concentration was measured by the bicinchoninic acid (BCA) method.
1. 230 μL of PBS was added to each well of a well plate with 1.1 mL volume.
2. 60 μL of the cerebral cortex cell membrane (5 μg/μL) solution was added to each well, and the mixture was mixed well.
3. The test compound (3 μL per well) was added, and the plate was incubated at 25° C. for 5 minutes. The DMSO concentration was 1%. The initial compound concentration was […], and a
3-fold dilution in gradient was carried out to obtain a total of 8 gradients and 2 replicates. 1% DMSO was used as a negative control, and 10 μM P026-2 was used as a positive control.
4. GABA was added at a final concentration of 5 μM, and incubated at 25° C. for 5 minutes. 1 mM GABA solution was formulated, and 1.5 μL of the solution was added to each well.
5. 35S-TBPS was added at a final concentration of 2 nM. The concentration of isotope mother solution was 9.7 μM. After dilution with PBS for 100 times, 6 μL of the diluted isotope solution was added to each well.
6. The plate was incubated at 4° C. for 20 hours.
7. The FilterMate GF/C plate was pre-treated with 0.5% PEI, and incubated at 4° C. for 1 hour.
8. The FilterMate GF/C plate was washed with Universal Harvester twice, 50 mL PBS each time.
9. The reaction solution was transferred to the GF/C plate, and each well was washed 4 times with 900 μL of PBS.
10. The washed GF/C plate was placed at 55° C. and dried for 10 minutes.
11. 40 μL of scintillation solution was added to each well, and the CPM value was read with TopCount.
In the experiment, the CPM (counts per minute) value was read with TopCount. According to the readings of the High control (DMSO) and the Low control (10 μM of the positive compound) experimental groups, the % inhibition was calculated based on the following formula: % Inhibition=100×(CPMHigh control−CPMsample)/(CPMHigh control−CPMLow control)
The IC50 of the compound was calculated according to the following 4-parameter nonlinear logic formula: Y=Bottom+(Top−Bottom)/(1+10^((Log IC50−X)*HillSlope)),
wherein: • X represents the log of compound concentration, • Y represents the % Inhibition.
The effect of the compound of the present invention on the TBPS binding activity was determined by the above test, and the measured IC50 values are shown in Table 5.

ICR mice = assay: Forced swimming model in mice; assay type: in vivo; conditions: for Mean (immobility, %): floating time/240 s; for Mean (immobility, s): latter four minutes of 6 min swim; for immobility time during the latter four minutes compared with that of the model group: forced swimming, ICR mice
Experimental: The antidepressant effect of the compound was evaluated by the forced swimming model in mice.
Compounds of Examples 1 to 3, Example 9, Example 40, Example 41, Examples 48 to 52, Example 90 and Example 98 of the present invention, prepared by the applicant.
Male ICR mice (25-35 g) were adapted in the experiment environment for 3 days before the forced swimming test.
According to the experiment design, the mice were randomly grouped on the day before the experiment according to body weight, with 12 mice in each group. Before the test, the compounds of each example were administered intragastrically according to the Tmax thereof in the brain in mice pharmacokinetic experiment.
Respectively: • 1) Model group (0.5% CMC-Na-1% Tween 80 solution, p.o., 10 mL/kg); • 2) Compounds of Examples 1 to 3, Example 40, Example 41, Examples 48 to 51, Example 90 and Example 98 (10 mg/kg, p.o., 10 mL/kg); Example 9 and Example 52 (5 mg/kg, p.o., 5 mL/kg).
When being administered, the compounds of each example were suspended in 0.5% CMC-Na+1% Tween 80 solution to the desired concentration.
0.5-1 hour after administration, ICR mice were placed in a forced swimming device (transparent glass drum (water depth 18 cm, water temperature 25-26° C.), one mouse per tank) and forced to swim for 6 minutes. The forced swimming device recorded the floating time of the ICR mice during the entire 6 minutes, and the data of the latter four minutes were used for data analysis. The mice were taken out immediately after the swimming experiment, wiped dry and put back in their original cages.
Note: The criterion for determining the immobility time is that the mouse stops struggling in water and floats, and there are only slight limb movements to keep the head floating on the water.
3.4 Data Analysis Floating time percentage=100*floating time/240 s.

[1] = molecular target: T1, human GABAA receptor α1, β2 and γ2 subunit (HEK293T cell line) (Homo sapiens, UniProt P14867+P47870); assay: Positive regulatory effect on GABAA receptor, manual patch clamp; assay type: cell-based; conditions: whole-cell current, 1 μM GABA
T1 construct: expressed in transfected cells
T1 sequence (P14867 28-456): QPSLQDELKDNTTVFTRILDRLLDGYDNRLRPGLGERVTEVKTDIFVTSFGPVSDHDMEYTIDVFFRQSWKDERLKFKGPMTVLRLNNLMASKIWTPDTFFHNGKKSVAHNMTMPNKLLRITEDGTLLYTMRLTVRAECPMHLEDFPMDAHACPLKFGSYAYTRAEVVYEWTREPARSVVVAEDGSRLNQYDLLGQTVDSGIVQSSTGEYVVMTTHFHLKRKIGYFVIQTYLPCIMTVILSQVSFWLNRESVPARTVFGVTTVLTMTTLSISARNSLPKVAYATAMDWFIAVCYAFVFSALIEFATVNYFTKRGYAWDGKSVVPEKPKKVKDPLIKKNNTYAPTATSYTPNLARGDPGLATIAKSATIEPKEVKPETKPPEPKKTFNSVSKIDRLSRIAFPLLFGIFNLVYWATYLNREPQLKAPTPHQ
T1 sequence (P47870 25-512 limits assumed): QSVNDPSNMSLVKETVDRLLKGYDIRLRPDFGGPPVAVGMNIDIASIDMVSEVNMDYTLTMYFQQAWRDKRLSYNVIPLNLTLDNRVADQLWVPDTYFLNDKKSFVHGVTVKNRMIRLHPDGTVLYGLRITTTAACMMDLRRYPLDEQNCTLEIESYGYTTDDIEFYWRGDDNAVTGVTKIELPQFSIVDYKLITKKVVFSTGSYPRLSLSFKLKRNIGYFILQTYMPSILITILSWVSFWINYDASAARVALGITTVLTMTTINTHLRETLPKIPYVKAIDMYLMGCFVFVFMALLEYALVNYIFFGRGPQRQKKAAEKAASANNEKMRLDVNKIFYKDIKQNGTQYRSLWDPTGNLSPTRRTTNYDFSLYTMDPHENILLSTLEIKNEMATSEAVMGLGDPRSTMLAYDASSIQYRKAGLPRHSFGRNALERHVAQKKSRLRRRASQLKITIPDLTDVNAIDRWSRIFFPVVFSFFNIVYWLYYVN
T1 sequence (P18507 40-475 partner): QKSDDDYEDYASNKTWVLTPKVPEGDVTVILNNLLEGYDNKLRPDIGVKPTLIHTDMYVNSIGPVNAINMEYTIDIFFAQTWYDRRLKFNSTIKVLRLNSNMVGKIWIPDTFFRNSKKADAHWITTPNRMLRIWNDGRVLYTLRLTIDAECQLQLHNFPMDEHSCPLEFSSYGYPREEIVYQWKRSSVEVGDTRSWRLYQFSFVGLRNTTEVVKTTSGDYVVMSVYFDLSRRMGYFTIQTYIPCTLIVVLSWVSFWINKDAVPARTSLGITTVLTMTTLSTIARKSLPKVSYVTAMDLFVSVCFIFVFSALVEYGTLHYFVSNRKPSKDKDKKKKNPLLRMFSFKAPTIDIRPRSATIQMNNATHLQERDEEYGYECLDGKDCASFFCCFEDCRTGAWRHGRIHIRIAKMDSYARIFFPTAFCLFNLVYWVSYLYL
Experimental: The objective of this test example is to determine the positive regulatory effect of the compound on GABAA receptor by the electrophysiological manual patch clamp method.
Manual patch clamp system HEKA EPC10 USB signal amplifier and digital conversion system (purchased from HEKA Electronics, Germany), centrifuge (Eppendorf, etc.), carbon dioxide incubator (purchased from Thermo, etc.), biological safety cabinet (Thermo, etc.), pipette (purchased from Eppendorf, etc.).
The cells were grown in a culture dish with DMEM medium (purchased from Invitrogen), and cultured in an incubator at 37° C. and 5% CO2. Before the electrophysiological experiment, the cells were transferred to a round glass slide placed in the culture dish, and grown in the same culture medium and under the same culture condition as above. The density of cells on each round glass slide should meet the requirement that most cells were independent and individual.
Each test compound was diluted in gradient with DMSO to obtain a stock solution, which was then diluted with extracellular fluid by 1,000-fold to obtain the final test concentration. The final concentration of DMSO in the compound solution with each concentration was 0.1%. The experiment used the manual patch clamp system HEKA EPC10 USB signal amplifier and digital conversion system for whole cell current recording. The round glass slide with HEK293T GABAA cells grown on the surface was taken out of the culture dish, and placed in the electrophysiological recording tank under the inverted microscope. The recording tank was continuously perfused with extracellular fluid. During the experiment, the whole-cell current recording technology was used to record the chloride current of the GABAA channel. 1 μM GABA was used to activate the chloride current of the GABAA channel of each cell as an initial control. 1 μM GABA acted on the cell through the drug perfusion system to induce the chloride current of the GABAA channel, the action time was about 3 to 5 seconds, and the current value was used as the initial control value. The test concentration of compound was perfused and incubated for 2 to 5 minutes. […] GABA solution (mixed with the test concentration of compound) was given to the cells to observe the enhancement effect of the test compound on the current induced by 1 μM GABA. When the cell state was stable, the test compound acted on the same cell from low to high concentration to record the enhancement effect of the induced current.
The experimental data was analyzed by HEKA Patchmaster, Microsoft Excel and the data analysis software provided by Graphpad Prism.

Row | Compound | IC50 (GABA-A receptor) | Mean (immobility, %) (ICR mice; dose 10 mpk p.o.) | Mean (immobility, s) (ICR mice; dose 10 mpk p.o.) | immobility time during the latter four minutes compared with that of the model group (ICR mice) | Mean (immobility, %) (ICR mice; dose 5 mpk p.o.) | Mean (immobility, s) (ICR mice; dose 5 mpk p.o.) | EC50 [1]
1 | C[C@@]1(O)CC[C@H]2[C@H](CC[C@@H]3[C@@H]2CC[C@@]2(C)[C@H]3[C@@H]3C[C@@H]3[C@@H]2C(=O)Cn2cc(C#N)cn2)C1 [Example 1, 1-(2-((2R,4aS,4bR,6aS,7S,7aS,8aR,8bR,8cR,10aR)-2-hydroxy-2,6a-dimethyloctadecahydrocyclopropa[4,5]cyclopenta[1,2-a]phenanthren-7-yl)-2-oxoethyl)-1H-pyrazole-4-carbonitrile] | 24.3 nM | 54.26% | 130.22 s | – | – | – | –
2 | C[C@@]1(O)CC[C@H]2[C@H](CC[C@@H]3[C@@H]2CC[C@@]2(C)[C@H]3[C@@H]3C[C@@H]3[C@@H]2C(=O)Cn2cc(C(F)(F)F)cn2)C1 [Example 3, 1-((2R,4aS,4bR,6aS,7S,7aS,8aR,8bR,8cR,10aR)-2-Hydroxy-2,6a-dimethyloctadecahydrocyclopropa[4,5]cyclopenta[1,2-a]phenanthren-7-yl)-2-(4-(trifluoromethyl)-1H-pyrazol-1-yl)ethan-1-one] | 13.5 nM | 59.93% | 143.81 s | – | – | – | –
3 | C[C@@]1(O)CC[C@H]2[C@H](CC[C@@H]3[C@@H]2CC[C@]2(C)C(C(=O)Cn4cc(C#N)cn4)C[C@@H](C4CC4)[C@@H]32)C1 (stereo partly drawn) [Example 48, 1-(2-((3R,5R,8R,9R,10S,13S,14S,15S)-15-Cyclopropyl-3-hydroxy-3,13-dimethylhexadecahydro-1H-cyclopenta[a]phenanthren-17-yl)-2-oxoethyl)-1H-pyrazole-4-carbonitrile] | 7.5 nM | 55.92% | 134.21 s | – | – | – | –
4 | C[C@@]1(O)CC[C@H]2[C@H](CC[C@@H]3[C@@H]2CC[C@@]2(C)[C@H]3[C@H](C3CC3)C[C@@H]2C(=O)Cn2nccn2)C1 [Example 50, 1-((3R,5R,8R,9R,10S,13S,14S,15S,17S)-15-Cyclopropyl-3-hydroxy-3,13-dimethylhexadecahydro-1H-cyclopenta[a]phenanthren-17-yl)-2-(2H-1,2,3-triazol-2-yl)ethan-1-one] | – | 29.57% | 70.96 s | very significantly different | – | – | –
5 | C[C@@]1(O)CC[C@H]2[C@H](CC[C@@H]3[C@@H]2CC[C@@]2(C)[C@H]3[C@H](C3CC3)C[C@@H]2C(=O)Cn2ccnn2)C1 [Example 51, 1-((3R,5R,8R,9R,10S,13S,14S,15S,17S)-15-Cyclopropyl-3-hydroxy-3,13-dimethylhexadecahydro-1H-cyclopenta[a]phenanthren-17-yl)-2-(1H-1,2,3-triazol-1-yl)ethan-1-one] | – | – | – | – | 30.72% | 73.72 s | –
6 | C[C@@H]1C[C@H](C(=O)Cn2ccc(C(F)(F)F)n2)[C@@]2(C)CC[C@H]3[C@@H](CC[C@@H]4C[C@](C)(O)CC[C@@H]43)[C@H]12 [Example 86, 1-((3R,5R,8R,9R,10S,13S,14S,15R,17S)-3-Hydroxy-3,13,15-trimethylhexadecahydro-1H-cyclopenta[a]phenanthren-17-yl)-2-(3-(trifluoromethyl)-1H-pyrazol-1-yl)ethan-1-one] | 8 nM | – | – | – | – | – | 74 nM
7 | CC[C@@H]1C[C@H](C(=O)Cn2ccc(C#N)n2)[C@@]2(C)CC[C@H]3[C@@H](CC[C@@H]4C[C@](C)(O)CC[C@@H]43)[C@H]12 [Example 90, 1-(2-((3R,5R,8R,9R,10S,13S,14S,15R,17S)-15-Ethyl-3-hydroxy-3,13-dimethylhexadecahydro-1H-cyclopenta[a]phenanthren-17-yl)-2-oxoethyl)-1H-pyrazole-3-carbonitrile] | 16.2 nM | 36.92% | 88.61 s | very significantly different | – | – | –
8 | C[C@@]1(O)CC[C@H]2[C@H](CC[C@@H]3[C@@H]2CC[C@@]2(C)[C@H]3[C@H](C3CC3)C[C@@H]2C(=O)Cn2ncnn2)C1 [Example 98, 1-((3R,5R,8R,9R,10S,13S,14S,15S,17S)-15-Cyclopropyl-3-hydroxy-3,13-dimethylhexadecahydro-1H-cyclopenta[a]phenanthren-17-yl)-2-(2H-tetrazol-2-yl)ethan-1-one] | 21.4 nM | – | – | very significantly different | 33.54% | 80.5 s | –
